Experiments:
Experiment in all cases: relative viability (nuclei count vs DMSO), 5 days (fraction); higher = more cells survive
ABC-1 = test system: ABC-1
Outline: (§1)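 Dosing by pin tool came one day after lung cancer cell lines were seeded in 1536-well plates, using either one drug or a fixed anchor-drug dose plus five library-drug doses (not always all listed) in √10 steps. After 5 days, nuclei were counted on 4× images. Relative viability is treated-well nuclei count divided by vehicle-well nuclei count, and values are medians of duplicate plates.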

CAL-12T = test system: CAL-12T
Outline: as §1

HCC-366 = test system: HCC-366
Outline: as §1

HCC-78 = test system: HCC-78
Outline: as §1

LC-2-ad = test system: LC-2-ad
Outline: as §1

LOU-NH91 = test system: LOU-NH91
Outline: as §1

LU99A = test system: LU99A
Outline: as §1

NCI-H1395 = test system: NCI-H1395
Outline: as §1

NCI-H1651 = test system: NCI-H1651
Outline: as §1

NCI-H1755 = test system: NCI-H1755
Outline: as §1

NCI-H1793 = test system: NCI-H1793
Outline: as §1

NCI-H1944 = test system: NCI-H1944
Outline: as §1

NCI-H2087 = test system: NCI-H2087
Outline: as §1

NCI-H2170 = test system: NCI-H2170
Outline: as §1

NCI-H2228 = test system: NCI-H2228
Outline: as §1

NCI-H2405 = test system: NCI-H2405
Outline: as §1

NCI-H3122 = test system: NCI-H3122
Outline: as §1

NCI-H460 = test system: NCI-H460
Outline: as §1

PC-3 [JPC-3] = test system: PC-3 [JPC-3]
Outline: as §1

RERF-LC-KJ = test system: RERF-LC-KJ
Outline: as §1

UMC-11 = test system: UMC-11
Outline: as §1

O=c1cc(N2CCOCC2)oc2c(-c3cccc4c3sc3ccccc34)cccc12 + CS(=O)(=O)CCNCc1ccc(-c2ccc3ncnc(Nc4ccc(OCc5cccc(F)c5)c(Cl)c4)c3c2)o1 [Lapatinib] (partner 2 µM)
relative viability (ABC-1; first compound 0.01 µM): 1.07
relative viability (ABC-1; first compound 0.03162 µM): 1.07
relative viability (ABC-1; first compound 0.1 µM): 1.6
relative viability (ABC-1; first compound 0.3162 µM): 1.04
relative viability (ABC-1; first compound 1 µM): 1.2
relative viability (CAL-12T; first compound 0.01 µM): 0.707
relative viability (CAL-12T; first compound 0.1 µM): 0.662
relative viability (CAL-12T; first compound 0.3162 µM): 0.671
relative viability (CAL-12T; first compound 1 µM): 0.691
relative viability (HCC-366; first compound 0.01 µM): 0.968
relative viability (HCC-366; first compound 0.03162 µM): 1.06
relative viability (HCC-366; first compound 0.1 µM): 1.04
relative viability (HCC-366; first compound 0.3162 µM): 1.04
relative viability (HCC-366; first compound 1 µM): 1.04
relative viability (HCC-78; first compound 0.01 µM): 1.03
relative viability (HCC-78; first compound 0.03162 µM): 0.856
relative viability (HCC-78; first compound 0.1 µM): 0.785
relative viability (HCC-78; first compound 0.3162 µM): 0.785
relative viability (HCC-78; first compound 1 µM): 0.652
relative viability (LC-2-ad; first compound 0.01 µM): 1.06
relative viability (LC-2-ad; first compound 0.1 µM): 1.03
relative viability (LC-2-ad; first compound 0.3162 µM): 0.898
relative viability (LC-2-ad; first compound 1 µM): 1.02
relative viability (LOU-NH91; first compound 0.01 µM): 0.775
relative viability (LOU-NH91; first compound 0.03162 µM): 0.774
relative viability (LOU-NH91; first compound 0.1 µM): 0.755
relative viability (LOU-NH91; first compound 0.3162 µM): 0.744
relative viability (LOU-NH91; first compound 1 µM): 0.764
relative viability (LU99A; first compound 0.01 µM): 1.11
relative viability (LU99A; first compound 0.03162 µM): 1.04
relative viability (LU99A; first compound 0.1 µM): 0.921
relative viability (LU99A; first compound 0.3162 µM): 1.02
relative viability (LU99A; first compound 1 µM): 1.07
relative viability (NCI-H1395; first compound 0.01 µM): 0.997
relative viability (NCI-H1395; first compound 0.03162 µM): 1.18
relative viability (NCI-H1395; first compound 0.1 µM): 0.826
relative viability (NCI-H1395; first compound 0.3162 µM): 1.04
relative viability (NCI-H1395; first compound 1 µM): 0.854
relative viability (NCI-H1651; first compound 0.01 µM): 0.746
relative viability (NCI-H1651; first compound 0.03162 µM): 0.909
relative viability (NCI-H1651; first compound 0.1 µM): 0.875
relative viability (NCI-H1651; first compound 0.3162 µM): 0.741
relative viability (NCI-H1651; first compound 1 µM): 0.878
relative viability (NCI-H1755; first compound 0.01 µM): 0.81
relative viability (NCI-H1755; first compound 0.03162 µM): 1.02
relative viability (NCI-H1755; first compound 0.1 µM): 1.02
relative viability (NCI-H1755; first compound 0.3162 µM): 1.04
relative viability (NCI-H1755; first compound 1 µM): 1.07
relative viability (NCI-H1793; first compound 0.01 µM): 0.707
relative viability (NCI-H1793; first compound 0.03162 µM): 0.824
relative viability (NCI-H1793; first compound 0.1 µM): 0.656
relative viability (NCI-H1793; first compound 0.3162 µM): 0.499
relative viability (NCI-H1793; first compound 1 µM): 0.45
relative viability (NCI-H1944; first compound 0.01 µM): 0.842
relative viability (NCI-H1944; first compound 0.03162 µM): 0.817
relative viability (NCI-H1944; first compound 0.1 µM): 1.04
relative viability (NCI-H1944; first compound 0.3162 µM): 1.01
relative viability (NCI-H1944; first compound 1 µM): 0.775
relative viability (NCI-H2087; first compound 0.01 µM): 0.847
relative viability (NCI-H2087; first compound 0.03162 µM): 1.11
relative viability (NCI-H2087; first compound 0.1 µM): 1.2
relative viability (NCI-H2087; first compound 0.3162 µM): 0.938
relative viability (NCI-H2087; first compound 1 µM): 1.17
relative viability (NCI-H2170; first compound 0.01 µM): 0.241
relative viability (NCI-H2170; first compound 0.03162 µM): 0.25
relative viability (NCI-H2170; first compound 0.1 µM): 0.253
relative viability (NCI-H2170; first compound 0.3162 µM): 0.285
relative viability (NCI-H2170; first compound 1 µM): 0.274
relative viability (NCI-H2228; first compound 0.03162 µM): 0.978
relative viability (NCI-H2228; first compound 0.1 µM): 1.03
relative viability (NCI-H2228; first compound 0.3162 µM): 1.23
relative viability (NCI-H2228; first compound 1 µM): 1.19
relative viability (NCI-H2405; first compound 0.01 µM): 1.12
relative viability (NCI-H2405; first compound 0.03162 µM): 1.18
relative viability (NCI-H2405; first compound 0.1 µM): 1.04
relative viability (NCI-H2405; first compound 0.3162 µM): 1.2
relative viability (NCI-H2405; first compound 1 µM): 1.11
relative viability (NCI-H3122; first compound 0.01 µM): 1.04
relative viability (NCI-H3122; first compound 0.03162 µM): 0.961
relative viability (NCI-H3122; first compound 0.1 µM): 1.03
relative viability (NCI-H3122; first compound 0.3162 µM): 0.953
relative viability (NCI-H3122; first compound 1 µM): 0.97
relative viability (NCI-H460; first compound 0.01 µM): 0.926
relative viability (NCI-H460; first compound 0.03162 µM): 1.07
relative viability (NCI-H460; first compound 0.1 µM): 1.09
relative viability (NCI-H460; first compound 0.3162 µM): 0.807
relative viability (NCI-H460; first compound 1 µM): 1.11
relative viability (PC-3 [JPC-3]; first compound 0.01 µM): 0.492
relative viability (PC-3 [JPC-3]; first compound 0.03162 µM): 0.435
relative viability (PC-3 [JPC-3]; first compound 0.1 µM): 0.462
relative viability (PC-3 [JPC-3]; first compound 0.3162 µM): 0.421
relative viability (PC-3 [JPC-3]; first compound 1 µM): 0.423
relative viability (RERF-LC-KJ; first compound 0.01 µM): 0.701
relative viability (RERF-LC-KJ; first compound 0.03162 µM): 0.882
relative viability (RERF-LC-KJ; first compound 0.1 µM): 0.906
relative viability (RERF-LC-KJ; first compound 0.3162 µM): 0.902
relative viability (RERF-LC-KJ; first compound 1 µM): 0.795
relative viability (UMC-11; first compound 0.01 µM): 0.997
relative viability (UMC-11; first compound 0.03162 µM): 1.03
relative viability (UMC-11; first compound 0.1 µM): 1.17
relative viability (UMC-11; first compound 0.3162 µM): 0.995
relative viability (UMC-11; first compound 1 µM): 0.951

Source: the supplement of paper PMC10307832
